Laboratory results: ChEMBL document CHEMBL1201862, “PubChem BioAssay data set” (2004)
Activity calls are given as the source filed them.

Tests used:
[1] = Trypanosoma cruzi growth suppression in host cells – NIH3T3 host cells, beta-gal luminescence, confirmation (AID 2044); assay type: functional, cell-based;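 further: intracellular parasites grown in NIH/3T3 mouse fibroblasts as host cells; luminescent beta-galactosidase reporter signal from transgenic T. cruzi replicating inside host cells; inhibitors lower the luminescence signal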
[2] = target: T1, Estrogen receptor (Homo sapiens, UniProt P03372);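 further: potency for inhibiting coactivator peptide recruitment to the receptor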
T1 sequence (P03372 whole entry): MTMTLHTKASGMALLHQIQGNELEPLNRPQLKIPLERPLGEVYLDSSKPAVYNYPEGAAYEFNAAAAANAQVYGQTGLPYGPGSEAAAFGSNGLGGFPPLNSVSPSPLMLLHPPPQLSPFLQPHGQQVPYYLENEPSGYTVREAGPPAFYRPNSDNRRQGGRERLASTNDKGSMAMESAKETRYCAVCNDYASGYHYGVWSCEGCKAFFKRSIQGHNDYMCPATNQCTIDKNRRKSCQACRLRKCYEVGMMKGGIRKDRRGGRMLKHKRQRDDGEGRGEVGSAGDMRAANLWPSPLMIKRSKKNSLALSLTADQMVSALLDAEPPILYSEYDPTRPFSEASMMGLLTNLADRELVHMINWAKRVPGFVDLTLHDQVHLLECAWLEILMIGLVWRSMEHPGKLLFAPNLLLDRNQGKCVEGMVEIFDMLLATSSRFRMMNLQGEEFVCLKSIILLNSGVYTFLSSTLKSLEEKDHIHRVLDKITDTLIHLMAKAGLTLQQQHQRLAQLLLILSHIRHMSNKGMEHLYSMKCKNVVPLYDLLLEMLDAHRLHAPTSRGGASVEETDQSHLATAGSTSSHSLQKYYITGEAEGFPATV

[3] = NIH3T3 cell viability loss – ATP luminescence, mouse fibroblasts, counter-screen, dose response (AID 2010); assay type: functional, cell-based;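 further: cells exposed to compound for about 90 hours before reading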
[4] = target: G-protein coupled receptor 55 (Homo sapiens, UniProt Q9Y2T6); test: selective activators of receptor GPR55 – imaging, U2OS cells, beta-arrestin-GFP redistribution, primary screen (AID 1961); assay type: functional
G-protein coupled receptor 55, sequence (Q9Y2T6 whole entry): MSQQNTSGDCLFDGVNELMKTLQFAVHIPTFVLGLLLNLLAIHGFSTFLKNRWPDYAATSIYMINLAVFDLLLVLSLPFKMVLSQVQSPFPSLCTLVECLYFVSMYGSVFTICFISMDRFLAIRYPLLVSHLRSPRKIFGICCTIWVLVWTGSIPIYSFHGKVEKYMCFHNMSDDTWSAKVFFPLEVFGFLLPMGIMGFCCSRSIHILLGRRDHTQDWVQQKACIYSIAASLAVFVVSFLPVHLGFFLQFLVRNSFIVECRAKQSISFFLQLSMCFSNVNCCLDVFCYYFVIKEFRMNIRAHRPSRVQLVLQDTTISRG

[5] = target: T2, Bcl-2-like protein 10 (Homo sapiens, UniProt Q9HD36); test: Bcl-B/TR3 peptide binding disruption – biochemical, fluorescence polarization, FITC-TR3 peptide, selectivity assay for Bfl-1 inhibitor project, primary screen (AID 748);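 further: fluorescence polarization from a fluorescein-labelled TR3 peptide binding purified Bcl-B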
T2 sequence (Q9HD36 whole entry): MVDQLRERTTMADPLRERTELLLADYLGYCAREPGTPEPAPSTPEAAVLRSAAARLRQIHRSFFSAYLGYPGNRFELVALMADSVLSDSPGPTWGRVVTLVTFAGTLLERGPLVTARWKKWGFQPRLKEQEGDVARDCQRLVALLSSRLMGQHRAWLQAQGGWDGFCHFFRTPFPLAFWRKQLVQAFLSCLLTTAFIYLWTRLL

[6] = target: T3, Voltage-gated N-type calcium channel alpha-1B subunit/Amyloid beta A4 precursor protein-binding family A member 1 (Homo sapiens, UniProt Q00975+Q02410); assay type: protein assay
T3 sequence (Q00975 whole entry): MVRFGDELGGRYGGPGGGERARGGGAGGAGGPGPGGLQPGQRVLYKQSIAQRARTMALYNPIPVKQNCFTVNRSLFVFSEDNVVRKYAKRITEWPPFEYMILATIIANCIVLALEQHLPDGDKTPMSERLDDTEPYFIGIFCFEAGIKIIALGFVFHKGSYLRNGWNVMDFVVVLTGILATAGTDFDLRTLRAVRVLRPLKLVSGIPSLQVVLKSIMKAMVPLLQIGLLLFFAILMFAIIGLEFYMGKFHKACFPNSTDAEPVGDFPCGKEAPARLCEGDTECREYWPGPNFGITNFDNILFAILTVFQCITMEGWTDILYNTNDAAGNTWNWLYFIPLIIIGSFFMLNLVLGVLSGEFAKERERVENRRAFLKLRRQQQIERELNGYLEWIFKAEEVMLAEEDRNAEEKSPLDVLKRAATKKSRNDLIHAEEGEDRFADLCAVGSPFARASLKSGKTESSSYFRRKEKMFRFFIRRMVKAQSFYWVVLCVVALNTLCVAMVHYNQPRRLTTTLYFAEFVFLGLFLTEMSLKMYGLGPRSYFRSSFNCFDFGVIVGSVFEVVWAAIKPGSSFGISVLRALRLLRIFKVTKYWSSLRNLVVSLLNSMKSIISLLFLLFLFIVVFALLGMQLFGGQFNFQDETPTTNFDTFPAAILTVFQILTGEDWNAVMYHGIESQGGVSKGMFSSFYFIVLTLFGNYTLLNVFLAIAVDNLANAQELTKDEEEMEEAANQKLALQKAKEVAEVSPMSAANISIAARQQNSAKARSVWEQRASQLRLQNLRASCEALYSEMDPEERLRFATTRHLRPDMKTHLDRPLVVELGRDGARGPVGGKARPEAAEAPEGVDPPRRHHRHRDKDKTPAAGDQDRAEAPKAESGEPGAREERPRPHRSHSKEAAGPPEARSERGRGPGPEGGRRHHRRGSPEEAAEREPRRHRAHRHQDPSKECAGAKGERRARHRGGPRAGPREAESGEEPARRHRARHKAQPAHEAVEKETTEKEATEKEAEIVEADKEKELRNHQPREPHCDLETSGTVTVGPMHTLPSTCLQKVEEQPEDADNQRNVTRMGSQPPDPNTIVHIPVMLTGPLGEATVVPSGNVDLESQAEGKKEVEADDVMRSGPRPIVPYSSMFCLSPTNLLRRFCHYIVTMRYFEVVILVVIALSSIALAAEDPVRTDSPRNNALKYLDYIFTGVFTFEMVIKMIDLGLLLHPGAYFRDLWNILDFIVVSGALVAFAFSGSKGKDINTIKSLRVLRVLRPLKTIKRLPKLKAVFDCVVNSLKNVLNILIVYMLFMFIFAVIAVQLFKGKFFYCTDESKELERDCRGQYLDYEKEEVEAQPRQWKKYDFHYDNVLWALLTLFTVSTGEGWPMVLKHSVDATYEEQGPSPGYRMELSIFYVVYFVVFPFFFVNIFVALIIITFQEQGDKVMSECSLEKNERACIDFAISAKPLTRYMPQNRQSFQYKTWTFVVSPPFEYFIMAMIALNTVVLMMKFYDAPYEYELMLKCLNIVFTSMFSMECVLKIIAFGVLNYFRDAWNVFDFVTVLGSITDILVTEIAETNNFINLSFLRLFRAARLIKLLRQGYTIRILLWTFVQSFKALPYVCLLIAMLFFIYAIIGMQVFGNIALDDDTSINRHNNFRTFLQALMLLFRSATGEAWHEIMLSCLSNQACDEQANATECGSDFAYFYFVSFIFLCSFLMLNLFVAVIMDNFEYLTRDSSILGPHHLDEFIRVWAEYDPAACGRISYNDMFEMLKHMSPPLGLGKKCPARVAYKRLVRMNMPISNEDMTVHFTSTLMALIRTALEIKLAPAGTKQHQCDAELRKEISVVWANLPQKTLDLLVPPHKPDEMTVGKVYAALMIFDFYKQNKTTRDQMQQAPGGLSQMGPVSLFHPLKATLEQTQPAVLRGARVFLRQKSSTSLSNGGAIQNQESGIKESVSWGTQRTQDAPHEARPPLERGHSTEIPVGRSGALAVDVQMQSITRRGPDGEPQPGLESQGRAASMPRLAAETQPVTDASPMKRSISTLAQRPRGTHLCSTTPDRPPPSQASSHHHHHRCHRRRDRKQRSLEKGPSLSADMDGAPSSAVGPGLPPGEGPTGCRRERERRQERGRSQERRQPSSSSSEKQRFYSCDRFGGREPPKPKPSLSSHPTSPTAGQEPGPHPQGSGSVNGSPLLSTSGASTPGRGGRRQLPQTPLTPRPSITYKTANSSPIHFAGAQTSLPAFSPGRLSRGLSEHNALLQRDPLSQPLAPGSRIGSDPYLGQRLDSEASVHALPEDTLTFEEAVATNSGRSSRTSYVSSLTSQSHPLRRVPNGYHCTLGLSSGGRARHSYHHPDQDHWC
T3 sequence (Q02410 whole entry): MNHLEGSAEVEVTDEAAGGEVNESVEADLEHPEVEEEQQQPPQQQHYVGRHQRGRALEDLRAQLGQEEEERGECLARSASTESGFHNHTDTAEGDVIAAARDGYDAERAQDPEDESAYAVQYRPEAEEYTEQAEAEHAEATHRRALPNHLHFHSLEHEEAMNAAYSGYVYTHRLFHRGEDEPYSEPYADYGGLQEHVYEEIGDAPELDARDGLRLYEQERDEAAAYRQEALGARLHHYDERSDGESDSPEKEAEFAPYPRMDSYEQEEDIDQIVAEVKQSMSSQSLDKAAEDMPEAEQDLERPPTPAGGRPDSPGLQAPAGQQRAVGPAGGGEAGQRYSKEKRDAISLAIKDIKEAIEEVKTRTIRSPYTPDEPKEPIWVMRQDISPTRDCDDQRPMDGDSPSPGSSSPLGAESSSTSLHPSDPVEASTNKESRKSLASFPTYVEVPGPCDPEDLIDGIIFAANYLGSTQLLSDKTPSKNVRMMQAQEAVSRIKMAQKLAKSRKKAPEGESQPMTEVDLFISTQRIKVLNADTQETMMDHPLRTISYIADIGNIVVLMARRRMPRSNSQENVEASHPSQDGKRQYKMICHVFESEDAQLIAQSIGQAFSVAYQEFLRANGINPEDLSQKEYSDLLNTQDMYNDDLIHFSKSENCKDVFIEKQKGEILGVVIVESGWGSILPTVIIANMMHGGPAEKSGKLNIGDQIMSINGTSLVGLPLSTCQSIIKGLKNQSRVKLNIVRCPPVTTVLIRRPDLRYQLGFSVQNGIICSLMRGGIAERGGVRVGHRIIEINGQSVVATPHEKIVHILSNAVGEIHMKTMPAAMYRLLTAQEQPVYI

[7] = target: Induced myeloid leukemia cell differentiation protein Mcl-1 (Homo sapiens, UniProt Q07820); assay type: functional
Induced myeloid leukemia cell differentiation protein Mcl-1, sequence (Q07820 whole entry): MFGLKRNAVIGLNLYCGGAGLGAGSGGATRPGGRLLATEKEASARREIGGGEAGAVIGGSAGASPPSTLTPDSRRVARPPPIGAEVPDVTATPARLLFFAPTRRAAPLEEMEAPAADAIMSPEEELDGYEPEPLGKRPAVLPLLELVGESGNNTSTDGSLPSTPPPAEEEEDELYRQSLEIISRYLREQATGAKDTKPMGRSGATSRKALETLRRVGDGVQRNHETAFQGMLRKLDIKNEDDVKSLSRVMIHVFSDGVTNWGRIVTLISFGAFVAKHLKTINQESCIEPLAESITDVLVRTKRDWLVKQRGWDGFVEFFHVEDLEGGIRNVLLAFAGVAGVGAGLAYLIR

[8] = target: T3, Voltage-gated N-type calcium channel alpha-1B subunit/Amyloid beta A4 precursor protein-binding family A member 1; assay type: protein assay; remark: listed apart in the source
[9] = target: T4, Mannose-6-phosphate isomerase (Homo sapiens, UniProt P34949); test: MPI enzyme activity inhibition – biochemical, fluorescence intensity, coupled assay, primary screen (AID 1209)
T4 sequence (P34949 whole entry): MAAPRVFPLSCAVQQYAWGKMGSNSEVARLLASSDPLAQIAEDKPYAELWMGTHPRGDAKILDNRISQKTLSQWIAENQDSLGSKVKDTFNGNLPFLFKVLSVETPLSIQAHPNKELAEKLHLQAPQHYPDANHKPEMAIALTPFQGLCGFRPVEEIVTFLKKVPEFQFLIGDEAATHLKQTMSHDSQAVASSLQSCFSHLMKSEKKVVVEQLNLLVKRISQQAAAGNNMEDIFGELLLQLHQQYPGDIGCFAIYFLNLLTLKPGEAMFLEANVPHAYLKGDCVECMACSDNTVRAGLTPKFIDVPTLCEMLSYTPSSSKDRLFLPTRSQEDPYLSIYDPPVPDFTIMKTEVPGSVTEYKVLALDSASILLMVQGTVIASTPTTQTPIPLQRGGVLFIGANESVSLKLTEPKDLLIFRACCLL

[10] = target: T5, Alkaline phosphatase, tissue-nonspecific isozyme (Homo sapiens, UniProt P05186); test: potency against alkaline phosphatase TNAP – biochemical, luminescent, dose response, SAR follow-up (AID 1056)
T5 sequence (P05186 whole entry): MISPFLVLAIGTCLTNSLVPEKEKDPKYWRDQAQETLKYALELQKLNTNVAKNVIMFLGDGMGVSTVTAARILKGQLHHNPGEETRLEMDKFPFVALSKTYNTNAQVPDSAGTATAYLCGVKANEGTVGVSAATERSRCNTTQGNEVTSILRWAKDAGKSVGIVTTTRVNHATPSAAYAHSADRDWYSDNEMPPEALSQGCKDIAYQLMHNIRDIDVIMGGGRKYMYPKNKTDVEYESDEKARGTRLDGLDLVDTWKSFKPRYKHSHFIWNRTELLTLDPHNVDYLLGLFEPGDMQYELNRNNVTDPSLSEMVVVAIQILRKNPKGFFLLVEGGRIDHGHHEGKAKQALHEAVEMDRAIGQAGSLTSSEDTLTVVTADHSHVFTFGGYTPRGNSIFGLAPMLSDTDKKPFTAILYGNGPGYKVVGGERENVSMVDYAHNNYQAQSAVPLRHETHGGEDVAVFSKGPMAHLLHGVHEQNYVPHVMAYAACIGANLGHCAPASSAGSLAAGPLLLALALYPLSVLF

[11] = target: Glyceraldehyde-3-phosphate dehydrogenase (Homo sapiens, UniProt P04406)
Glyceraldehyde-3-phosphate dehydrogenase, sequence (P04406 whole entry): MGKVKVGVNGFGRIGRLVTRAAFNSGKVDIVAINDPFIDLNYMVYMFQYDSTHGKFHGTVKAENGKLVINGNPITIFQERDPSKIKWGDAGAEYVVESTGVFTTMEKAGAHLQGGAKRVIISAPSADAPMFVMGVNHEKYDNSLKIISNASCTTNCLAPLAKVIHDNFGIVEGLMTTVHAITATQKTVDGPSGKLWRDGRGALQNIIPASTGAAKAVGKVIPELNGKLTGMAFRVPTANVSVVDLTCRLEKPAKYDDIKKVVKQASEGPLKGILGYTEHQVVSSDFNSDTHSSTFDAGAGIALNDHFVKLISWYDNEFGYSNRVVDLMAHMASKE

[12] = target: T6, Hexokinase HKDC1 (Homo sapiens, UniProt Q2TB90); test: inhibition of HKDC1 glucose phosphorylation – biochemical, W721R variant, dose response (AID 504729); assay type: functional
T6 sequence (Q2TB90 whole entry): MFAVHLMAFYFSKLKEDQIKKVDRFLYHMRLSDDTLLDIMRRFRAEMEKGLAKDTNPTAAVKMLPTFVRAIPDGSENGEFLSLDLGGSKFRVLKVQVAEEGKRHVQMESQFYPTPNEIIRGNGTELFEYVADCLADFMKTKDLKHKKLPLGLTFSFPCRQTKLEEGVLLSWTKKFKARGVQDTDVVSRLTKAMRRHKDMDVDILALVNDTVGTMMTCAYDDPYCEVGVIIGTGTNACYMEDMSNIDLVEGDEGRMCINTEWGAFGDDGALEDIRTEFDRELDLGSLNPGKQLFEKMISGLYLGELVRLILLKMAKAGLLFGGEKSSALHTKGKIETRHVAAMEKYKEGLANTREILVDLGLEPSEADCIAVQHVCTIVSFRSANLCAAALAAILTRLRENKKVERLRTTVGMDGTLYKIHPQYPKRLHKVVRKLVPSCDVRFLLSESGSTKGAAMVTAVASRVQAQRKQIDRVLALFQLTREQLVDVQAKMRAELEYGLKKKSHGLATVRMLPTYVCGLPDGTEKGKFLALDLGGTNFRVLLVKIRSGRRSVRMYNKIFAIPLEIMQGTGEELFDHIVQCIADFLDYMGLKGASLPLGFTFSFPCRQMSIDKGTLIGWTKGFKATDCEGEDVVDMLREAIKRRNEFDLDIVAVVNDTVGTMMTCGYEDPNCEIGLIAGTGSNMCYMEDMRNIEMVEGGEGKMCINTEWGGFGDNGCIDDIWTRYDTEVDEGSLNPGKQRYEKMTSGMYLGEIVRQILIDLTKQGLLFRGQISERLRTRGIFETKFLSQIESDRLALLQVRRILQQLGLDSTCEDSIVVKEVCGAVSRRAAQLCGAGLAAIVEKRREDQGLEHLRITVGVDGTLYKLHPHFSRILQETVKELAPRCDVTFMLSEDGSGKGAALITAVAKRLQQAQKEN

[13] = target: Intestinal-type alkaline phosphatase (Homo sapiens, UniProt P09923); test: Dose Response confirmation of uHTS hits from a small molecule inhibitors of human intestinal alkaline phosphatase via a luminescent assay. [Related pubchem assays (depositor defined):AID2544, AID2574]; assay type: functional
Intestinal-type alkaline phosphatase, sequence (P09923 whole entry): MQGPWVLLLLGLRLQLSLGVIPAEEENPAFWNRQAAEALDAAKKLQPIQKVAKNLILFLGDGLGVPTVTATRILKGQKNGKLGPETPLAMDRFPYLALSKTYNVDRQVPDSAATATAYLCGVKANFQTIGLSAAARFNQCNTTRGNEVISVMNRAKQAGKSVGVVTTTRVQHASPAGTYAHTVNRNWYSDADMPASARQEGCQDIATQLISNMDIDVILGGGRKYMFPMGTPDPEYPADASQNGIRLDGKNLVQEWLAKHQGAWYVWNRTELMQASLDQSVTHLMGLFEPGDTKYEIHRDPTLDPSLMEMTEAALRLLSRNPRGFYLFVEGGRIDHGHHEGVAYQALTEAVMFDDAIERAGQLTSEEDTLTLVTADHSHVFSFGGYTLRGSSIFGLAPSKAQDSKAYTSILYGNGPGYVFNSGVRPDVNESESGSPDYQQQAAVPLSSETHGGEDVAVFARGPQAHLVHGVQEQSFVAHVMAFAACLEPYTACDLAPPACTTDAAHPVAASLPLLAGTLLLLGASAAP

[14] = target: T7, Apoptotic protease-activating factor 1 (Homo sapiens, UniProt O14727); assay type: functional
T7 sequence (O14727 whole entry): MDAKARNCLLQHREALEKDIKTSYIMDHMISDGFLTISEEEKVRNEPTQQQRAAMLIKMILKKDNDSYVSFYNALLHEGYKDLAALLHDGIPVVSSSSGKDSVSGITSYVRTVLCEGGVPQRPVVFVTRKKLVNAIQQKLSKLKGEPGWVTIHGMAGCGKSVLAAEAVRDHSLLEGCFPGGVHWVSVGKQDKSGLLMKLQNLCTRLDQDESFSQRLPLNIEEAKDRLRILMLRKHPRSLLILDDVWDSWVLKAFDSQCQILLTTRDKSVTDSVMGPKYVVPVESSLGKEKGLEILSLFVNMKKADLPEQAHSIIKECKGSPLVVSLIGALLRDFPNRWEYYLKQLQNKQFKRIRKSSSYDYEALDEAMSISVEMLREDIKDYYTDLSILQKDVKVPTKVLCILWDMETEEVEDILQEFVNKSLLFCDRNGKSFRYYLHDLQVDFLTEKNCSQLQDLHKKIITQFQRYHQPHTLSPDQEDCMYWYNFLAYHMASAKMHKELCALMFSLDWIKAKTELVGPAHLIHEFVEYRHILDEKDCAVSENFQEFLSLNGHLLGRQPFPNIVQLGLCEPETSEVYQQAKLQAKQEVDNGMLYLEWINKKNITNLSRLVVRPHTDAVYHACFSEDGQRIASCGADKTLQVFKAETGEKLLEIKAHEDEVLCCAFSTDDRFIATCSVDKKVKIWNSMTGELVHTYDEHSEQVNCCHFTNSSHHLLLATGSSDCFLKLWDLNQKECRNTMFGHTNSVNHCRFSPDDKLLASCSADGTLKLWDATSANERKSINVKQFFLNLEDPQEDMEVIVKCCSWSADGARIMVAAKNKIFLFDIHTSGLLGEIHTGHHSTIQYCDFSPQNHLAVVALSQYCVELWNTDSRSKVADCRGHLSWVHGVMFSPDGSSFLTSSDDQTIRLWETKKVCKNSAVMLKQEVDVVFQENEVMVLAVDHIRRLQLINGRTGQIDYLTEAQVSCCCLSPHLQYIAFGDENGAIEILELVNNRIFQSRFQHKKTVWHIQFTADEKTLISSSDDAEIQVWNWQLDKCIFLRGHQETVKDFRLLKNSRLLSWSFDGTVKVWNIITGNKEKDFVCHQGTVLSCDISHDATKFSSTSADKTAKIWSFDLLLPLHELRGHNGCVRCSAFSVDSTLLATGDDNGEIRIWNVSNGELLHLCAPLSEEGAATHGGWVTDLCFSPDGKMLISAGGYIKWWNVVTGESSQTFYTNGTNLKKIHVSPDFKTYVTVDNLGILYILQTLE

[15] = target: T4, Mannose-6-phosphate isomerase; test: MPI inhibition at elevated mannose 6-phosphate – biochemical, fluorescence intensity, high mannose 6-phosphate, primary screen (AID 1220)
[16] = target: Estrogen receptor beta (Homo sapiens, UniProt Q92731);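 further: recombinant ER-beta bound to coactivator SRC1 peptide in presence of estradiol agonist; inhibitors block coactivator peptide binding and lower the FRET signal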

Structure (SMILES): COC(=O)c1cc2ccsc2n1CC(=O)Nc1ccc(N(C)C)cc1
- EC50 [1]: 4.34 µM (active)
- IC50 [2]: 47.3 µM (not active)
- EC50 [3]: > 30 µM (not active)

Structure (SMILES): CCCN(CCC)c1nc2c(C)cccn2c(=O)c1/C=C1/SC(=S)N(Cc2ccco2)C1=O
- EC50 [1]: 0.352 µM (active)
- EC50 [4]: 2.97 µM (active)
- EC50 [3]: > 30 µM (not active)

Structure (SMILES): Cc1c(Cl)cnc(NC(=O)COC(=O)C(NC(=O)c2ccco2)C(C)C)c1Cl (stereo unspecified)
- IC50 [5]: 18.2 µM (active)

Structure (SMILES): N#CC(C#N)=NNc1ccc(S(N)(=O)=O)cc1
- IC50 [6]: 16.9 µM (active)
- IC50 [7]: 4.71 µM (active)
- IC50 [8]: > 50 µM (inactive)

Structure (SMILES): CC(=O)Nc1ccc(SC[C@H](CC(C)C)N2CCN(CCc3ccccc3)CCC2=O)cc1
- EC50 [4]: 9 µM (active)

Structure (SMILES): Cc1snc(SCC(=O)c2ccc([N+](=O)[O-])cc2)c1C#N
- IC50 [9]: 33.9 µM (active)

Structure (SMILES): CSc1nnc(NC(=O)CSc2nc(C)cc(C)n2)[nH]1
- IC50 [10]: > 100 µM (inactive)

Structure (SMILES): Cc1cc(C)nc(NC(=O)CSc2nn(C)c(=S)s2)n1
- IC50 [2]: 8.77 µM (active)

Structure (SMILES): O=C1[C@H]2CCCC[C@H]2C(=O)N1c1nnc(Cc2ccc(F)cc2)[nH]1
- IC50 [10]: 10.2 µM (active)
- IC50 [11]: > 100 µM (not active)

Structure (SMILES): CC(C)c1nc2oc3c(NCCO)ncnc3c2c2c1COC(C)(C)C2
- IC50 [12]: 3.39 µM (active)

Structure (SMILES): Cc1ccc2[nH]c(SCC(=O)Nc3ccc(O)c(C(=O)O)c3)nc2c1
- IC50 [11]: > 100 µM (not active)

Structure (SMILES): CC1=C(C(=O)O)N2C(=O)C(NC(=O)c3nn(C)c(C)c3Cl)C2SC1 (stereo unspecified)
- IC50 [6]: 9.8 µM (active)
- IC50 [8]: > 50 µM (inactive)

Structure (SMILES): C=CCN1C(=O)/C(=C2/C(=O)N(CC(=O)O)c3ccccc32)S/C1=N/c1nccs1
- IC50 [7]: 2.78 µM (active)
- IC50 [5]: 3.03 µM (active)

Structure (SMILES): O=C(CN1CCN(C(=O)N2CCCCC2)CC1)Nc1ccc(F)cc1
- IC50 [13]: > 100 µM (inactive)

Structure (SMILES): CCCCCn1c(NC(=O)c2ccco2)c(C(=O)OCC)c2nc3ccccc3nc21
- IC50 [9]: > 50 µM (not active)
- IC50 [14]: 20.3 µM (active)
- IC50 [15]: > 50 µM (not active)

Structure (SMILES): Cc1cc(Cl)c(S(=O)(=O)Nc2ccc3c(c2)OCO3)cc1OCC(N)=O
- IC50 [16]: > 50 µM (not active)
- IC50 [2]: > 50 µM (not active)

Structure (SMILES): COc1ccccc1Oc1ccc(S(=O)(=O)Nc2cccnc2)cc1
- IC50 [10]: > 100 µM (inactive)
- IC50 [11]: > 100 µM (not active)

Structure (SMILES): Cc1nc2c(c(=O)c3ccccc3n2C)c(=O)n1-c1ccccc1
- IC50 [12]: 11.8 µM (active)
